Laboratory results taken from publication PMC11674377 (2024).

Columns and labels:
[1] = system: sildenafil aptamer molecular gate (SDF-Aptamer + 3' TGCAAT) (DNA, aptamer) ATTGCAAACCCTCTACCAACAATCGTACTCGTTCGACGTGATGCAAT; test: TMB release from aptamer-gated silica nanoparticles; details: 1 µM sildenafil; immobilised aptamer gate; about 63 ± 6.2% of TMB released; control leakage 7.2 ± 4.4%
[2] = system: SDF-Aptamer (DNA, aptamer) ATTGCAAACCCTCTACCAACAATCGTACTCGTTCGACGTGA; test: fluorescent graphene oxide assay, Langmuir one-ligand fit; details: K+ 2.7 mM, Na+ 137 mM; PBS (0.01 M phosphate, pH 7.4), 25 °C; aptamer 1 µM; unbound aptamer removed with 4 mg/mL GO; salt form used not stated (b30 mentions citrate)

- binding [1]: yes
- KD [2]: 205.3 ± 38.1 nM
Structure (SMILES): CCCc1nn(C)c2c(=O)[nH]c(-c3cc(S(=O)(=O)N4CCN(C)CC4)ccc3OCC)nc12
